# Results taken from PubChem BioAssay (NCI).
#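 Step 1: Grow cells in 96-well plates. Step 2: Expose to compound for 48 hours at 5 concentrations. Step 3: Interpolate endpoints linearly; if unreached, use highest concentration. GI50 is the concentration that inhibits growth by half. Definition used: TGI = concentration required for complete inhibition of growth.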
# What was measured:
# Assay in all cases: NCI tumour cell line growth inhibition, 48 h
# A549 NSCLC = tested on: A549 NSCLC
# HS 578T breast = tested on: HS 578T breast
# RPMI-8226 leukemia = tested on: RPMI-8226 leukemia
# SN12C renal = tested on: SN12C renal
# MDA-MB-231 breast = tested on: MDA-MB-231 breast
# OVCAR-4 ovarian = tested on: OVCAR-4 ovarian
# KM12 colon = tested on: KM12 colon
# HCT-116 colon = tested on: HCT-116 colon
# BT-549 breast = tested on: BT-549 breast
SMILES,GI50 (A549 NSCLC) [nM],TGI (A549 NSCLC) [µM],GI50 (HS 578T breast) [nM],TGI (HS 578T breast) [µM],GI50 (RPMI-8226 leukemia) [nM],TGI (RPMI-8226 leukemia) [µM],GI50 (SN12C renal) [nM],TGI (SN12C renal) [µM],GI50 (MDA-MB-231 breast) [nM],TGI (MDA-MB-231 breast) [µM],GI50 (OVCAR-4 ovarian) [nM],TGI (OVCAR-4 ovarian) [µM],GI50 (KM12 colon) [nM],TGI (KM12 colon) [µM],GI50 (HCT-116 colon) [nM],TGI (HCT-116 colon) [µM],TGI (BT-549 breast) [µM],GI50 (BT-549 breast) [nM]
CCN1CCN(C(=O)[C@]23CC[C@@H](C)[C@H](C)[C@@H]2C2=CC[C@@H]4[C@@]5(C)C/C(=C/c6cccnc6)C(=O)C(C)(C)[C@@H]5CC[C@@]4(C)[C@]2(C)CC3)CC1,3150,16.8,1910,4.77,2180,6.35,1610,3.01,1750,3.59,2570,7.36,1750,3.56,1690,3.55,,
CC(=O)Nc1ccc2c(C(=O)O)c(C)c(=O)[nH]c2n1,,> 100,,> 100,,> 100,,> 100,,> 100,,,,> 100,,> 100,> 100,
C(=N\Nc1ncc(-c2cc3cc4c(cc3o2)OCO4)s1)/c1c[nH]c2ccccc12,487,3.1,2020,6.02,1550,> 100,374,3.98,,,503,4.1,449,2.04,2130,10.2,7.55,1320
C=CCOc1ccc(C2c3c([nH][nH]c3=O)CC(O)(OCC)C2C(=O)OCC)cc1OC (centres undefined),,> 100,,> 100,,> 100,,> 100,,> 100,,> 100,,> 100,,> 100,,
N#CCCNCCN(CCN(C(=O)Nc1ccccc1)c1ccccc1)C(=O)Nc1ccccc1,,> 100,,> 100,,> 100,,> 100,,> 100,,,,,,> 100,> 100,
COc1ccc2c(c1)OCC1(O)Cc3ccccc3OC21 (centres undefined),,> 100,,,,> 100,,> 100,,> 100,,> 100,,> 100,,> 100,> 100,
O=S(=O)(c1ccccc1)n1c(C(O)c2ccncc2)cc2ccccc21 (centres undefined),,> 100,,,,> 100,,> 100,,> 100,,> 100,,> 100,,> 100,> 100,
CCOC(=O)C1=CN=C2C(=O)N(c3ccccc3)N(C)C2(C)C1=N (centres undefined),,> 100,,,,> 100,,> 100,,> 100,,> 100,,> 100,,> 100,> 100,
CCN(CC)CCCCCCCCNc1c2ccc(Cl)cc2nc2ccc(OC)cc12,1560,3.62,2820,> 100,675,3.34,1640,3.73,1480,3.09,1140,2.71,1420,3.92,1360,3.14,,
O=C1C=Cc2c(Cl)sc(Cl)c21,,> 90.6,,,,4.02,,> 100,,> 100,,37.1,,,,2.33,7.92,
Cc1ccccc1N=C(N)NC#N,,> 100,,> 100,,> 100,,> 100,,> 100,,> 100,,,,> 100,> 100,
CCSSCS(C)(=O)=O,,> 100,,> 100,,,,67.8,,> 100,,40,,> 100,,> 100,96.5,
c1ccc2c(c1)c1c(n2CCOCCN2CCCCC2)CCCC1,,30.1,,32.1,,28,,27.4,,24.4,,25.3,,26.7,,25,,
CC1(C)CCC[C@]2(C)[C@@H]1CC[C@@]13O[C@@H]1C1=C(CO)C(=O)O[C@]14O[C@@H]4[C@@H]23,,23.5,,,,> 100,,20.5,,35.9,,30,,63.8,,26.6,31.8,
C[C@]12CC[C@H]3[C@@H](CCC4=CC(=O)C=C[C@@]43O)[C@@H]1CCC2=O,,> 100,,,,> 100,,> 100,,> 100,,,,> 100,,> 100,> 100,
CN(C(=O)C12C3C4(C(=O)O)C1(C(=O)N(C)C(C)(C)C)C1C2(C(=O)O)C3(C(=O)N(C)C(C)(C)C)C14C(=O)N(C)C(C)(C)C)C(C)(C)C (centres undefined),,> 100,,> 100,,,,> 100,,> 100,,> 100,,> 100,,> 100,> 100,
